Measured values taken from ChEMBL document CHEMBL1759964, “Structure-based virtual screening approach to the discovery of phosphoinositide 3-kinase alpha inhibitors” (Bioorg Med Chem Lett, 2011).
pIC50: −log10 of the molar value.

Target: Phosphatidylinositol 4,5-bisphosphate 3-kinase catalytic subunit alpha isoform (Homo sapiens, UniProt P42336)
Test: Inhibition of PI3Kalpha

Sequence of Phosphatidylinositol 4,5-bisphosphate 3-kinase catalytic subunit alpha isoform (P42336 whole entry, canonical isoform): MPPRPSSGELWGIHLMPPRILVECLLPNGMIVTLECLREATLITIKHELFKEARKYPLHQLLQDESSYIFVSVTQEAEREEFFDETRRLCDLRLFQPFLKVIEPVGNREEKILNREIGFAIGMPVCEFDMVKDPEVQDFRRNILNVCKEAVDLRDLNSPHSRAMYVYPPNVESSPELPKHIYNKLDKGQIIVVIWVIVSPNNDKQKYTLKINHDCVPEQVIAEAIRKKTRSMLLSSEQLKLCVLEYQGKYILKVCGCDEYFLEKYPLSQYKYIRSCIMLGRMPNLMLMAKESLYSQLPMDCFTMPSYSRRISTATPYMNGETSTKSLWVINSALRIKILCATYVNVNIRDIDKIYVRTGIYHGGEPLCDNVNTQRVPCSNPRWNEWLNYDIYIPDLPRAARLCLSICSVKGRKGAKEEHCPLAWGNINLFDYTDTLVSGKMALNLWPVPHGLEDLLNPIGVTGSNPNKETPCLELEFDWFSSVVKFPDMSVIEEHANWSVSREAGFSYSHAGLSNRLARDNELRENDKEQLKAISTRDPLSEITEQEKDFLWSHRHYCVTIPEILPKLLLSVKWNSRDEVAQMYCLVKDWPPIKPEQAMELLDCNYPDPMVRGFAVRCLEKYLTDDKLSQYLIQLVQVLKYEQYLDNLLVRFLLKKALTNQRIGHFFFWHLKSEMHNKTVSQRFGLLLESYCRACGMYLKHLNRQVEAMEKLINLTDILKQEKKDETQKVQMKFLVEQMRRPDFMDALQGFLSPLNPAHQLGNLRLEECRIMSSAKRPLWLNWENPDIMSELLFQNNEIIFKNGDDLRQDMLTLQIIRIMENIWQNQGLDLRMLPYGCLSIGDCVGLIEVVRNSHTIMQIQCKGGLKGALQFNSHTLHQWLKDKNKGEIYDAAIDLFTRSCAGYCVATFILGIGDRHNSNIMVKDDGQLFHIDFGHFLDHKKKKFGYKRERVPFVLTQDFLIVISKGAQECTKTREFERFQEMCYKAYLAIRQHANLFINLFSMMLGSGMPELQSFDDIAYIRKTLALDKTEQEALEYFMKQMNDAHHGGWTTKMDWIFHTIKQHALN

pIC50	SMILES
4.40	Cc1ccc(OCC(=O)Nc2ccc(-c3nnc(-c4ccco4)o3)cc2)cc1
4.64	Cc1nc(N/C(N)=N/C(=O)c2ccccc2N)nc2ccccc12
4.40	CCOc1ccc2nc3cc(/N=C/c4ccco4)ccc3c(N)c2c1
4.55	Cc1cccc(NC(=O)c2ccc(Cn3cnc4ccccc4c3=O)o2)n1
